Holding throughout (assay type): biochemical
The target in one test is HCK (Homo sapiens, UniProt P08631). Description: Kinome profiling HCK. The conditions noted are these: read-out: Inhibitory activity HCK; for inhibition at 0.1 µM: 100 nM. As for the experimental part: (§1) . The kinome-wide selectivity was determined following the methods previously reported by Mohedas et al., ACS Chem Biol 2013, 8, 1291-1302 and Sanvitale et al., PLoS One 2013, 8, e62721.

Another test has as its target EGFR (Homo sapiens, UniProt P00533). The test is described as follows: Kinome profiling EGFR. The conditions noted are these: read-out: Inhibitory activity EGFR; for inhibition at 0.1 µM: 100 nM. The procedure: as §1
The next test deals with KIT (Homo sapiens, UniProt P10721). Description: Kinome profiling KIT. The conditions noted are these: read-out: Inhibitory activity KIT; for inhibition at 0.1 µM: 100 nM. The procedure: as §1
The target of another test is RON (Homo sapiens, UniProt Q04912). The test is described as follows: Kinome profiling RON. The conditions noted are these: read-out: Inhibitory activity RON; for inhibition at 0.1 µM: 100 nM. As for the experimental part:
as §1

For a further test, the target named is T1, SGK3 (Homo sapiens, UniProt Q96BR1).
T1 sequence (Q96BR1 1-496): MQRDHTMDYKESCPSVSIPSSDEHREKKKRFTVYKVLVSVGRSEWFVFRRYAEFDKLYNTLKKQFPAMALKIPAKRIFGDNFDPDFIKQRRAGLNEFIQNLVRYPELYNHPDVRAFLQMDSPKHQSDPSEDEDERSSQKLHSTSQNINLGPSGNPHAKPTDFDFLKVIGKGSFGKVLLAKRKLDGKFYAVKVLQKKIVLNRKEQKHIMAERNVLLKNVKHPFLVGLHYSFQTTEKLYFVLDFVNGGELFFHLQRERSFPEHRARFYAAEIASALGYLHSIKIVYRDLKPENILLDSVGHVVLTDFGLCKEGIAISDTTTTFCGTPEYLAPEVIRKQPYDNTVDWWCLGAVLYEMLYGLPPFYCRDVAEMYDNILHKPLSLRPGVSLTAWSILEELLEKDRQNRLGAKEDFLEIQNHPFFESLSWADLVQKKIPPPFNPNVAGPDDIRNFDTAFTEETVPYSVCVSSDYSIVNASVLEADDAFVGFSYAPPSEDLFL
Description: Kinome profiling SGK3. The conditions noted are these: read-out: Inhibitory activity SGK3; for inhibition at 0.1 µM: 100 nM. The procedure:
as §1

A further test has as its target PI4-K-β (Homo sapiens, UniProt Q9UBF8). Description: Kinome profiling PI4-K-β. The conditions noted are these: read-out: Inhibitory activity PI4-K-β; for inhibition at 0.1 µM: 100 nM. As for the experimental part:
as §1

A further test addresses T2, P38δ (Homo sapiens, UniProt O15264).
T2 sequence (O15264 1-365): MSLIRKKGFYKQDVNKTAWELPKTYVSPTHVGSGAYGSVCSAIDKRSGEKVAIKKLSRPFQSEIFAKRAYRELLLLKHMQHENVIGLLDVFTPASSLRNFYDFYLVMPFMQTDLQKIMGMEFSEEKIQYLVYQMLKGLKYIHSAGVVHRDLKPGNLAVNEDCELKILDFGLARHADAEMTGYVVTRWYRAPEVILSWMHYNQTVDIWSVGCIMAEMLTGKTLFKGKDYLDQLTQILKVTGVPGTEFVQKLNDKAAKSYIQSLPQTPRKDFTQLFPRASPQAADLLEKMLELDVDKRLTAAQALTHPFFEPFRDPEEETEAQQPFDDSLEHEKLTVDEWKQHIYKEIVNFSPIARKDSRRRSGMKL
The test is described as follows: Kinome profiling P38δ. The conditions noted are these: read-out: Inhibitory activity P38δ; for inhibition at 0.1 µM: 100 nM. The procedure: as §1

For another test, the target named is P70S6KB1 (Homo sapiens, UniProt P23443). Description: Kinome profiling P70S6KB1. As to conditions: read-out: Inhibitory activity P70S6KB1; for inhibition at 0.1 µM: 100 nM. As for the experimental part:
as §1

Another test deals with CDK5/p35 (Homo sapiens, UniProt Q00535). Description: Kinome profiling CDK5/p35. As to conditions: read-out: Inhibitory activity CDK5/p35; for inhibition at 0.1 µM: 100 nM. The procedure:
as §1

In a further test the target is ROCK1 (Homo sapiens, UniProt Q13464). Description: Kinome profiling ROCK1. The conditions noted are these: read-out: Inhibitory activity ROCK1; for inhibition at 0.1 µM: 100 nM. The procedure: as §1
The target of another test is CAMK1δ (Homo sapiens, UniProt Q8IU85). Description: Kinome profiling CAMK1δ. As to conditions: read-out: Inhibitory activity CAMK1δ; for inhibition at 0.1 µM: 100 nM. The procedure: as §1
The target of a further test is T3, IKK-α (Homo sapiens, UniProt O15111).
T3 sequence (O15111 1-745): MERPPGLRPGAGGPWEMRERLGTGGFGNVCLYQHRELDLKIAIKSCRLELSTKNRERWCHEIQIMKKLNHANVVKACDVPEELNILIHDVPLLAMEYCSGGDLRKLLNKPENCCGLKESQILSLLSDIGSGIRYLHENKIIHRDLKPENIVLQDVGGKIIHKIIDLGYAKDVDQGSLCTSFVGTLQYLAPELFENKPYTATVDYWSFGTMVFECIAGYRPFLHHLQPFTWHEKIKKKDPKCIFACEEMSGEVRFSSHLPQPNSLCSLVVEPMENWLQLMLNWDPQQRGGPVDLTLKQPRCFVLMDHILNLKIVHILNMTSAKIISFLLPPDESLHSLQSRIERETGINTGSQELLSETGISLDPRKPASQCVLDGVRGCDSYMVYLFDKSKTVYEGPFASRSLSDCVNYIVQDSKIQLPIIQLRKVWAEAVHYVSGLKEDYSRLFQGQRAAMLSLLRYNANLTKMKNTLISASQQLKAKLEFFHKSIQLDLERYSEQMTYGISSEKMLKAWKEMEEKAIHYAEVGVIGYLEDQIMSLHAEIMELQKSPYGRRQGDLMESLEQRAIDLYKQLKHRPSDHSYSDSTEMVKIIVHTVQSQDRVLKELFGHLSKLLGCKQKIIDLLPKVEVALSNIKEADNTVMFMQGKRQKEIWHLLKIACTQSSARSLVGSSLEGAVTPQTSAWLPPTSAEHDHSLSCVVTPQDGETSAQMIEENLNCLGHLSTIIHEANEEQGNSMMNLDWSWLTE
The test is described as follows: Kinome profiling IKK-α. As to conditions: read-out: Inhibitory activity IKK-α; for inhibition at 0.1 µM: 100 nM. The procedure:
as §1

Results on 2 compounds are retold here after patent US20170190705A1, “Compositions and Methods for Inhibiting BMP” (THE BRIGHAM AND WOMAN'S HOSPITAL, INC., priority 2014, published 2017).

Sequence of CAMK1δ (Q8IU85 whole entry): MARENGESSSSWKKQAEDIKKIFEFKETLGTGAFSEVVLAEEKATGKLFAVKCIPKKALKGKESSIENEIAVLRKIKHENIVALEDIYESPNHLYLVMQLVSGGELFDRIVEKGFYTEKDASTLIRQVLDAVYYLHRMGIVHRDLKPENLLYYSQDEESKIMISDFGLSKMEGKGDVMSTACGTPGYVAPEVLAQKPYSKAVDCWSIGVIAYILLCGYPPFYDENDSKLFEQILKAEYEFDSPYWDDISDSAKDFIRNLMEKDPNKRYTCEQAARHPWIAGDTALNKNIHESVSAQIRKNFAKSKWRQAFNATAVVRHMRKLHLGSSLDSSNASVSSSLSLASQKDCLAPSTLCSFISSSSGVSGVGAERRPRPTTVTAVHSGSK
Sequence of KIT (P10721 26-976): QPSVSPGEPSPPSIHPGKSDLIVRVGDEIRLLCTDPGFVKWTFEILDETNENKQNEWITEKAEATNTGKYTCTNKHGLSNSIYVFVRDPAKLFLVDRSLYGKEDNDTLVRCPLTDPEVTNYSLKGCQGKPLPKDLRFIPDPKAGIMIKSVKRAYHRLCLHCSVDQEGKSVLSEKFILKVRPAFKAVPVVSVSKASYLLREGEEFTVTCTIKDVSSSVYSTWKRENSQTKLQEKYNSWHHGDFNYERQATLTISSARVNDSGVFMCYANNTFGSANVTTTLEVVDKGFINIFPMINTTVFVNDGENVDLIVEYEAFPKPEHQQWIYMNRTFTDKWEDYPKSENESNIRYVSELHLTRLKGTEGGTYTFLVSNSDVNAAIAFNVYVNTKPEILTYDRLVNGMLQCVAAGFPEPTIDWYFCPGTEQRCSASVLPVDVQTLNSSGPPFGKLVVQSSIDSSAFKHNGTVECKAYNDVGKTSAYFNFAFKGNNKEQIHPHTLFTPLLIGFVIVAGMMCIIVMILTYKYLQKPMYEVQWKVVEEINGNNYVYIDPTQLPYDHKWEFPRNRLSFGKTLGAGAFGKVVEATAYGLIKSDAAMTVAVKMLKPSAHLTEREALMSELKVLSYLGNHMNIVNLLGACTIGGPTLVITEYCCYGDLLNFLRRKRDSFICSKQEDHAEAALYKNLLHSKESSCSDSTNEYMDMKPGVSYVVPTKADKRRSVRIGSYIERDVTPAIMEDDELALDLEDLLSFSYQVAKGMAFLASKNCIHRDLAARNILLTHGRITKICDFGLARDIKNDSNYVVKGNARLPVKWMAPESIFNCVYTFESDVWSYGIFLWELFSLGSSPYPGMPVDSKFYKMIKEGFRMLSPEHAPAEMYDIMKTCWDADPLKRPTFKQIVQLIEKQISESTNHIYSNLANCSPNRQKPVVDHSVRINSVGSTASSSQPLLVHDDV
Sequence of P70S6KB1 (P23443 whole entry): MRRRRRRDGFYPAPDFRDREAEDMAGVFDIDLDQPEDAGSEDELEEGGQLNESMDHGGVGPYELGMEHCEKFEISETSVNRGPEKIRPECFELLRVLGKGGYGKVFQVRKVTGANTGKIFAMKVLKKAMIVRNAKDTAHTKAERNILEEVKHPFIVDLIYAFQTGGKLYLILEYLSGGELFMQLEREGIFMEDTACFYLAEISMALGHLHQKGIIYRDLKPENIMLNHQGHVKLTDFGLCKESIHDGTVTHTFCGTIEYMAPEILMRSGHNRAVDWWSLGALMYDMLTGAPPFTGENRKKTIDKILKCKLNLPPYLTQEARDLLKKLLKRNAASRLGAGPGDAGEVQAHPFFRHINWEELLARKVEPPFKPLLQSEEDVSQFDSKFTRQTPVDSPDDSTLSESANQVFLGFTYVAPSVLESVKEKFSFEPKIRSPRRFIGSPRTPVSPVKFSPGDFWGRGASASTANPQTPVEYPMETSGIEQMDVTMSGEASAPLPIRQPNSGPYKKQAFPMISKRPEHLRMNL
Sequence of RON (Q04912 25-1400): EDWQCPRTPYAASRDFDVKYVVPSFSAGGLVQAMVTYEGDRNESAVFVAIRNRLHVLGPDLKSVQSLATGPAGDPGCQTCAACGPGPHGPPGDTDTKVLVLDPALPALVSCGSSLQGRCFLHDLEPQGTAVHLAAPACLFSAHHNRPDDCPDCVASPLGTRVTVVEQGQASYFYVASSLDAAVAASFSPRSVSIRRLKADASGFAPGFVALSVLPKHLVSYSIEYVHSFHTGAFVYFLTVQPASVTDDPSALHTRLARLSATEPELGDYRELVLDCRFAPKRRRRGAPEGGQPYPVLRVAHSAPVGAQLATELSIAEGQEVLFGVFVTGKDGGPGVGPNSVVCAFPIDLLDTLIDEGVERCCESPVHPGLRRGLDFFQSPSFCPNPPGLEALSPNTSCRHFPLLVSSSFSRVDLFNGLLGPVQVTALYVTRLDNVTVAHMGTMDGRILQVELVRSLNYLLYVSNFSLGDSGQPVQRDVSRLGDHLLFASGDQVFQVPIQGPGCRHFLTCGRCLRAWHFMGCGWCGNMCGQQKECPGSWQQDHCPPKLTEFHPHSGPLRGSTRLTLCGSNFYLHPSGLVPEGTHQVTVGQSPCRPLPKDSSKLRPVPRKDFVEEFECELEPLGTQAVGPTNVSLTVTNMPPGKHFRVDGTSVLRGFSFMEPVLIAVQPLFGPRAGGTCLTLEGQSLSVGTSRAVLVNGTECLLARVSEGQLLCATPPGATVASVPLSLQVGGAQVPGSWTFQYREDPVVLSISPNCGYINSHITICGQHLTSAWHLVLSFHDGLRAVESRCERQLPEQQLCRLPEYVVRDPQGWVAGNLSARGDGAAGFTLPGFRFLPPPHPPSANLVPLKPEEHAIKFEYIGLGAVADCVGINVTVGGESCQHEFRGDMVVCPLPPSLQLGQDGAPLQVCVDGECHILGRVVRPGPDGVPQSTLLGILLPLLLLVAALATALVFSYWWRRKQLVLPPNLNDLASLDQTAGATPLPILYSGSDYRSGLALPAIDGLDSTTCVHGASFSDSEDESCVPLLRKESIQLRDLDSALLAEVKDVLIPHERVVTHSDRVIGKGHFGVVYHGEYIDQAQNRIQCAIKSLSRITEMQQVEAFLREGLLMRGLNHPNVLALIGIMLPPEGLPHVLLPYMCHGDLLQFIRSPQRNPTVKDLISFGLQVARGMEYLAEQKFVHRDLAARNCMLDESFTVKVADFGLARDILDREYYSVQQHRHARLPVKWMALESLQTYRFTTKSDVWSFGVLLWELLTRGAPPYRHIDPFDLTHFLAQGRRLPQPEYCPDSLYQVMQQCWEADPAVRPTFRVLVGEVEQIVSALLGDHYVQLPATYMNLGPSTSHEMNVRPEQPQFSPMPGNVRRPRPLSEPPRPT
Sequence of HCK (P08631 whole entry): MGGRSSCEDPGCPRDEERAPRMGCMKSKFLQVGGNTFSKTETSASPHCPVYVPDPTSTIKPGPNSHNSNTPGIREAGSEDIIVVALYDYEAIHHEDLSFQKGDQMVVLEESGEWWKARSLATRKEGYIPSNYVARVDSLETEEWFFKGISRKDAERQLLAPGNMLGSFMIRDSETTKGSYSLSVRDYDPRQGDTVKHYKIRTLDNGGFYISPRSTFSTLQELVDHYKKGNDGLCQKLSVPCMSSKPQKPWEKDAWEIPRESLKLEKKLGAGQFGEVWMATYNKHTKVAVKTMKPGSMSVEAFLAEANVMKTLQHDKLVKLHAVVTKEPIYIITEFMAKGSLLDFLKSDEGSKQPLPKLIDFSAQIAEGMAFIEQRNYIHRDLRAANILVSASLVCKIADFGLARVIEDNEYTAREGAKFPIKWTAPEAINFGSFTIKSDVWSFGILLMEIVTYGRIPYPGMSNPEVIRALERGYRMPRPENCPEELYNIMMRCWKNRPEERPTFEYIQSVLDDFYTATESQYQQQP
Sequence of EGFR (P00533 25-1210): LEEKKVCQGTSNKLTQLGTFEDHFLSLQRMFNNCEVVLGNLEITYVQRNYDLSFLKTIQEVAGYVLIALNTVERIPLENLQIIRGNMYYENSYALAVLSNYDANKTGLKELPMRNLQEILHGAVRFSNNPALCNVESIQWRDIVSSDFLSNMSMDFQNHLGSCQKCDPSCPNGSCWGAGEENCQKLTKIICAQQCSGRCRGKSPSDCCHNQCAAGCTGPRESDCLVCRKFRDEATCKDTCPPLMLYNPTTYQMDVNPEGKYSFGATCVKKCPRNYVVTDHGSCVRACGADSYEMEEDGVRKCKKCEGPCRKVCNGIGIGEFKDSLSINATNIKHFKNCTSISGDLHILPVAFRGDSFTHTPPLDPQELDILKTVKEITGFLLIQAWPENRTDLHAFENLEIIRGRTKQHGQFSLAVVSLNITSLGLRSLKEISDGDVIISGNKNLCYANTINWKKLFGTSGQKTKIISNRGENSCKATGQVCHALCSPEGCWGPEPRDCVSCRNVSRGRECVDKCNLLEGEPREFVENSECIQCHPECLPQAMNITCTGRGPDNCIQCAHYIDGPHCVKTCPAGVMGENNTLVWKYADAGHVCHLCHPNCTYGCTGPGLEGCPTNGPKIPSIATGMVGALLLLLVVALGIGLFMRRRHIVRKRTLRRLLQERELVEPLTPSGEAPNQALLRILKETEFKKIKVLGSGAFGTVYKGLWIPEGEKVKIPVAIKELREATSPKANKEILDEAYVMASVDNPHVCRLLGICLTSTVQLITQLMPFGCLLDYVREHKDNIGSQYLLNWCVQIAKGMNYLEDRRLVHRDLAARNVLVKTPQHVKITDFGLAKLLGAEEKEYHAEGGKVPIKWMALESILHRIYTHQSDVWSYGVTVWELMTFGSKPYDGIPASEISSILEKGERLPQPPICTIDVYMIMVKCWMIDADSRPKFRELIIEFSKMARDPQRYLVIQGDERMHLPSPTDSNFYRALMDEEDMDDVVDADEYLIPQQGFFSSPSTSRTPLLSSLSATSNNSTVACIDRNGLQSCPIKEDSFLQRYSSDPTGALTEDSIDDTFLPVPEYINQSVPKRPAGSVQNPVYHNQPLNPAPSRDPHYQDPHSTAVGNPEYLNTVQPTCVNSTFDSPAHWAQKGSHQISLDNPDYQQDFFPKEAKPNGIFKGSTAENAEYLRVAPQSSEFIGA

Take `COc1cc(-c2cc(-c3ccc(N4CCNCC4)cc3)cnc2N)cc(OC)c1OC` [Compound 15, 5-(4-(piperazin-1-yl)phenyl)-3-(3,4,5-trimethoxyphenyl)pyridin-2-amine]: the inhibition at 0.1 µM on HCK was 41%; on EGFR it was 8%; on KIT, 5%; at RON, 3%; at SGK3, -8%; on PI4-K-β it was 1%. Moreover, the inhibition at 0.1 µM at P38δ was 2%; on P70S6KB1 it was 0%; on CDK5/p35, 0%; at ROCK1, 0%; at CAMK1δ, 0%; at IKK-α, -1%. For the same compound, the inhibition at 1 µM was 81% on HCK; 37% on EGFR; 22% at KIT; 17% on RON; 3% at SGK3; 1% on PI4-K-β. For the same compound, the inhibition at 1 µM on P38δ is 1%; on P70S6KB1 it was 0%; at CDK5/p35, 0%; on ROCK1 it was 0%; at CAMK1δ it was -1%; on IKK-α, -2%.

As for `COc1cc(-c2cc(-c3ccc(N4CCNCC4)cc3)cnc2C)cc(OC)c1OC` [Compound 10, 1-(4-(6-methyl-5-(3,4,5-trimethoxyphenyl)pyridin-3-yl)phenyl)piperazine], the inhibition at 0.1 µM on HCK is 3%; on EGFR, 3%; at KIT, 5%; at RON, 2%; at SGK3 it was 3%; at PI4-K-β, -10%. The inhibition at 0.1 µM at P38δ was 1%; at P70S6KB1, 1%; at CDK5/p35, 2%; at ROCK1, 1%; on CAMK1δ, 1%; on IKK-α it was 3%. Also, the inhibition at 1 µM is 15% on HCK; 16% on EGFR; 12% at KIT; 6% at RON; 11% on SGK3; -15% on PI4-K-β. Moreover, the inhibition at 1 µM was -1% on P38δ; 1% on P70S6KB1; 2% at CDK5/p35; 0% on ROCK1; 2% at CAMK1δ; 4% at IKK-α.
